The results in this text go back to PMC11374673, “Discovery of isoquinoline sulfonamides as allosteric gyrase inhibitors with activity against fluoroquinolone-resistant bacteria” (Nature Chemistry, 2024).

≈ marks a conversion by molar mass, not a printed value.

One may read the MIC as the lowest concentration that inhibits growth of the organism.

One assay relates to E. coli W3110. In words: MIC by broth microdilution. Type of assay: cell-based, Escherichia coli. Particulars: Escherichia coli, W3110, follow-up of the 12 library hits; read-out: MIC E. coli. The procedure: MIC was determined by broth microdilution. Single-colony cultures were grown to exponential phase (OD600 of 0.5) aerobically at 37 °C. In case of strains from the Keio collection, 50 µg ml^−1 kanamycin was supplemented to the media to ascertain a homogeneous population. The bacterial suspensions were diluted 100-fold in CAMHB and 50 µl was added to a twofold serial dilution series of test compounds (50 µl per well) in polypropylene 96-well microtitre plates to reach a volume of 100 µl. The plates were sealed with breathable membranes and incubated overnight at 37 °C with constant shaking (600 r.p.m.).
On the technique in general: Broth dilution looks for growth in wells or tubes with falling amounts of substance.
Take `Cc1ccc(S(=O)(=O)N[C@@H]2C(=O)c3cc(C)ccc3O[C@H]2C)cc1` [IMI1517570]: the MIC was found to be 25 µM (≈ 8.64 µg/mL).

As to `Nc1cc2c(S(=O)(=O)NCCNC/C=C/c3ccc(-c4cccnc4)cc3)cccc2cn1` [SG181], the minimum inhibitory concentration (MIC) was more than 50 µM.

As for `O=S(=O)(NCCNCCCc1ccc(-c2cccnc2)cc1)c1cccc2cnccc12` [SG145], the minimum inhibitory concentration (MIC) is more than 50 µM.

On to `O=S(=O)(NCCNC/C=C/c1ccc(-c2cccnc2)cc1)c1ccc2cn[nH]c2c1` [SG171], for which the MIC was more than 50 µM.

For `O=S(=O)(NCCNC/C=C/c1ccccc1-c1ccc2c(c1)OCO2)c1cccc2cnccc12` [Compound 97i], the MIC was more than 50 µM.

Turning to `Nc1ccc2c(N3CCC(COc4ccccn4)CC3)ncnc2n1` [AJ358], the MIC was more than 50 µM.

As for `O=S(=O)(NCCNCCc1ccc(-c2cccnc2)cc1)c1cccc2cnccc12` [BB077], the MIC was more than 50 µM.

Take `O=S(=O)(NCCNC/C=C/c1ccc(-c2cccnc2)cc1)c1ccc2[nH]ncc2c1` [SG170]: the minimal inhibitory concentration (MIC) was more than 50 µM.

`Nc1ccccc1S(=O)(=O)NCCNC/C=C/c1ccc(-c2cccnc2)cc1` [BB064]: the MIC was more than 50 µM.

On to `O=S(=O)(NCCNC/C=C/c1ccc(-c2cccnc2)cc1)c1cccc2[nH]ncc12` [SG176], for which the MIC is more than 50 µM.

Still in this assay, the particulars now being: Escherichia coli, W3110, read-out: MIC E. coli.
For the compound `CN(C)CCCN1c2ccccc2Sc2ccc(Cl)cc21` [MB053], the minimal inhibitory concentration (MIC) is more than 50 µM.
